Test results taken from patent US10189809B2, “SGC stimulators” (Ironwood Pharmaceuticals, Inc., priority 2010, dated 2019).

Legend:
[1] = target: T1, soluble guanylate cyclase (sGC) (Homo sapiens (Human), UniProt Q02108+Q02153); test: sGC-HEK-cGMP assay run with SNP incubation (HEK WC assay); type: cell-based; conditions: for Emax at 10 µM: read-out: HEK WC Assay (% Emax at 10 uM/with 10 uM SNP); for Emax at 30 µM: read-out: HEK WC Assay (% Emax at 30 uM/with 10 uM SNP)
Outline: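 HEK293 cells with endogenous sGC were pretreated with 0.5 mM IBMX for 15 min at 37 °C, then exposed to test compound plus sodium nitroprusside for 10 min at 37 °C.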

Thoracic aortic rings = Thoracic aortic rings assay (Example 19a; IBMX as 100% inhibition); conditions: compound at 10 μM; rat thoracic aortic rings contracted with 100 ng/mL phenylephrine; read-out: Percent Relaxation at 10 μM
Description: Thoracic aortic rings were dissected from anesthetized (isoflurane) male Sprague-Dawley rats weighing 275-299 g. Tissues were immediately transferred to ice-cold Krebs-Henseleit solution, which had been aerated with 95% O2 and 5% CO2 for 30 minutes. Following removal of connective tissue, aortic sections were cut into 4 rings (˜2 mm each) and suspended on 2 L-shaped hooks, with one hook fixed at the bottom of the tissue bath (Schuler Organ Bath, Harvard Apparatus) and the other connected to a force transducer (F30 Force Transducer, Harvard Apparatus). Baths contained Krebs Henseleit solution (10 mL) heated to 37° C. and aerated with 95% O2 and 5% CO2. Rings were brought to an initial tension of 0.3-0.5 g and gradually raised to a resting tension of 1.0 g over 60 minutes. Rings were rinsed with Krebs Henseleit solution (heated to 37° C. and aerated with 95% O2 and 5% CO2) at 15 minute intervals until a stable baseline was obtained. Rings were considered to be stable after a resting tension of 1.0 g was maintained (for approximately 10 minutes) without need for adjustment. Rings were then contracted with 100 ng/mL phenylephrine by adding 100 uL of a 10 μg/mL phenylephrine stock solution. Tissues achieving a stable contraction were then treated in a cumulative, dose dependent manner with test compounds prepared in dimethylsulfoxide (DMSO). In some cases, tissues were rinsed three times over a 5 minute period with Krebs-Heinseleit's solution (heated to 37° C. and aerated with 95% O2 and 5% CO2), allowed to stabilize at baseline, and then used for characterization of other test articles or DMSO effects. All data were collected using the HSE-ACAD software provided by Harvard Apparatus. […] EC50 values were calculated from concentration-response curves generated with GraphPad Prism Software.

[2] = target: T1, soluble guanylate cyclase (sGC); test: sGC-HEK-cGMP assay run in the absence of SNP (HEK WC assay); type: cell-based; conditions: no SNP, increase in the sGC receptor activity; for HEK WC Assay (fold increase at 10 μM): compound at 10 μM; for HEK WC Assay (fold increase at 30 μM): compound at 30 μM
Outline: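 HEK293 cells with endogenous sGC, preincubated 15 min at 37° C with 0.5 mM IBMX, then exposed to test compound 10 min at 37° C without SNP. Cells lysed in 0.1 M HCl; cGMP quantified by LC/MS against a standard curve. EC50 from concentration-response curves.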

[3] = target: T2, Human soluble guanylate cyclase enzyme (hsGC) (Homo sapiens (Human), UniProt Q02108+Q02153); test: Purified human sGC enzyme synergy assay in the presence of 1 μM sodium nitroprusside (SNP); type: biochemical; conditions: with 1 μM SNP; for sGC Enzyme (fold increase at 10 μM with SNP): 10 μM compound; for sGC Enzyme (fold increase at 30 μM with SNP): 30 μM compound
T2 sequence (Q02153 whole entry): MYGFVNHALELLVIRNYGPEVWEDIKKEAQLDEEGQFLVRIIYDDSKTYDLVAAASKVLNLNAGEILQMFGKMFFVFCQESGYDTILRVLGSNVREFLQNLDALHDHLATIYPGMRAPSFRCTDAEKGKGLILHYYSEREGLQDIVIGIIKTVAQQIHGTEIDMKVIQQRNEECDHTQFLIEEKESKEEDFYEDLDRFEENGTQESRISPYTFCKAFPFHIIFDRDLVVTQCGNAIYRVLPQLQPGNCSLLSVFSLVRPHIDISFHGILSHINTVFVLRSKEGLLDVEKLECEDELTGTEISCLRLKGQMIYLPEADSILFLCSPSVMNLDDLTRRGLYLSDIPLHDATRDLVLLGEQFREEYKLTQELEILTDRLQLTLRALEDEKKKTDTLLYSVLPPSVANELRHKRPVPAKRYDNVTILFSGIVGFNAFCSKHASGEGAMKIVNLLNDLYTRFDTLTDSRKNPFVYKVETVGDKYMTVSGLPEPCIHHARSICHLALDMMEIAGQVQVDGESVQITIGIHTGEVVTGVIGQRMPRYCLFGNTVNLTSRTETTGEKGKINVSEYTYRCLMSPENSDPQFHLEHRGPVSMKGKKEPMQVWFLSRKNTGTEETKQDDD
T2 sequence (Q02108 whole entry): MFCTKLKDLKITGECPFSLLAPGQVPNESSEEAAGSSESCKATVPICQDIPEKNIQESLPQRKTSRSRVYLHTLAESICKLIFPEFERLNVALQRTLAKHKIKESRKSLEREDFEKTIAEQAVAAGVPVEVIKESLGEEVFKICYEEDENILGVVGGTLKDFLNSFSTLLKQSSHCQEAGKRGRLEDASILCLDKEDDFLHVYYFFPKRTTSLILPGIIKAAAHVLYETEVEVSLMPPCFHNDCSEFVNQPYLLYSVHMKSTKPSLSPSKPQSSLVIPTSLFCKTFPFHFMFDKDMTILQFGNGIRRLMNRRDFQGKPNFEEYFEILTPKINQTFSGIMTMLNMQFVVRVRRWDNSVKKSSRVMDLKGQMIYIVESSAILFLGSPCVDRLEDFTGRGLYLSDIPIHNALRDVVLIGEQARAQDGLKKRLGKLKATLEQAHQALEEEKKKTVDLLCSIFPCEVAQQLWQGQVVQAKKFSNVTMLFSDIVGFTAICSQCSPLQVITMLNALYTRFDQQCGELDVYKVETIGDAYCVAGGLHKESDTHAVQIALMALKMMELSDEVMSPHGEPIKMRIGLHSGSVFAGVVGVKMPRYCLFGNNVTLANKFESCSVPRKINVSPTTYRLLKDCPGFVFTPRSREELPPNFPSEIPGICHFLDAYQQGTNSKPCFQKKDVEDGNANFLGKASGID
Outline: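 Purified human sGC (5 ng) incubated 30 min at 37 °C with compounds at 10 or 30 μM, 1 μM sodium nitroprusside, 300 μM GTP and 1 mM IBMX in Tris pH 8.0 with MgCl2/DTT. cGMP quantified against a standard curve, and specific activity expressed as fold-change over DMSO control.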

[4] = target: T2, Human soluble guanylate cyclase enzyme (hsGC); test: Purified human sGC enzyme activity assay; type: biochemical; conditions: for sGC Enzyme (specific activity at 10 μM) / sGC Enzyme (fold increase at 10 μM without SNP): 10 μM compound; for sGC Enzyme (fold increase at 30 μM without SNP) / sGC Enzyme (specific activity at 30 μM): 30 μM compound
Outline: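 Purified human sGC (5 ng) incubated 30 min at 37° C with compound at 10 or 30 μM final in pH 8.0 Tris with 300 μM GTP, 2 mM MgCl2, 2 mM DTT and 1 mM IBMX, then stopped with cold methanol. cGMP quantified against a standard curve. Specific activity (nmol cGMP/mg sGC/min) expressed as fold-change over DMSO control.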

T1 sequence (Q02153 whole entry): as the sequence (Q02153 whole entry) above
T1 sequence (Q02108 whole entry): as the sequence (Q02108 whole entry) above

SMILES	Emax at 10 µM [1]	Emax at 30 µM [1]	HEK WC Assay (fold increase at 10 μM) [2]	HEK WC Assay (fold increase at 30 μM) [2]	sGC Enzyme (fold increase at 10 μM with SNP) [3]	sGC Enzyme (fold increase at 30 μM with SNP) [3]	sGC Enzyme (specific activity at 10 μM) [4]	sGC Enzyme (fold increase at 10 μM without SNP) [4]	sGC Enzyme (fold increase at 30 μM without SNP) [4]	sGC Enzyme (specific activity at 30 μM) [4]	inhibition at 10 µM (Thoracic aortic rings)
N#Cc1cc(-c2ccccn2)nn1Cc1ccccc1F [Compound I-3]	20 to 40%	40 to 60%	A (A = no increase to <1 fold increase)	D (D = 5 to <10 fold increase)	C (C = 5 to <10 fold increase)	C (C = 5 to <10 fold increase)	D (D = 200 to <500)	B (B = 2 to <5 fold increase)	C (C = 5 to <10 fold increase)		92%
Fc1ccccc1Cn1nc(-c2ccccn2)cc1-c1ccccc1F [Compound I-7]	0 to 10%	0 to 10%			B (B = 2 to <5 fold increase)	C (C = 5 to <10 fold increase)	D (D = 200 to <500)	B (B = 2 to <5 fold increase)	B (B = 2 to <5 fold increase)	D (D = 200 to <500)	60.4%
Fc1ccccc1Cn1nc(-c2ccccn2)cc1C1CCC1 [Compound I-42]	0 to 10%	10 to 20%			B (B = 2 to <5 fold increase)	C (C = 5 to <10 fold increase)	D (D = 200 to <500)	B (B = 2 to <5 fold increase)	C (C = 5 to <10 fold increase)	E (E = 500 to <1000)	72.1%

Second part, led by results:

Emax at 10 µM [1]	Emax at 30 µM [1]	HEK WC Assay (fold increase at 10 μM) [2]	HEK WC Assay (fold increase at 30 μM) [2]	sGC Enzyme (fold increase at 10 μM with SNP) [3]	sGC Enzyme (fold increase at 30 μM with SNP) [3]	sGC Enzyme (specific activity at 10 μM) [4]	sGC Enzyme (fold increase at 10 μM without SNP) [4]	sGC Enzyme (fold increase at 30 μM without SNP) [4]	sGC Enzyme (specific activity at 30 μM) [4]	SMILES	inhibition at 10 µM (Thoracic aortic rings)
20 to 40%	40 to 60%	B (B = 1 to <2 fold increase)	C (C = 2 to <5 fold increase)		D (D = equal or >10 fold increase)	C (C = 100 to <200)	A (A = no increase to <2 fold increase)	C (C = 5 to <10 fold increase)	D (D = 200 to <500)	Fc1ccccc1Cn1nc(-c2ncccn2)cc1-c1nccs1 [Compound I-33]	110%
0 to 10%	10 to 20%	A (A = no increase to <1 fold increase)	A (A = no increase to <1 fold increase)	B (B = 2 to <5 fold increase)	B (B = 2 to <5 fold increase)	D (D = 200 to <500)	B (B = 2 to <5 fold increase)	B (B = 2 to <5 fold increase)	D (D = 200 to <500)	Fc1ccccc1Cn1nc(-c2ccccn2)cc1-c1ccccc1 [Compound I-5]	55.6%
10 to 20%	20 to 40%	A (A = no increase to <1 fold increase)	D (D = 5 to <10 fold increase)	B (B = 2 to <5 fold increase)	C (C = 5 to <10 fold increase)	E (E = 500 to <1000)	B (B = 2 to <5 fold increase)	C (C = 5 to <10 fold increase)	E (E = 500 to <1000)	Fc1ccccc1Cn1nc(-c2ncccn2)cc1-c1ccsc1 [Compound I-4]	102%
0 to 10%	10 to 20%			B (B = 2 to <5 fold increase)	C (C = 5 to <10 fold increase)	C (C = 100 to <200)	A (A = no increase to <2 fold increase)	B (B = 2 to <5 fold increase)	C (C = 100 to <200)	Nc1ccnc(-c2cc(-c3ccccn3)n(Cc3ccccc3F)n2)n1 [Compound I-31]	93.2%
20 to 40%	20 to 40%	B (B = 1 to <2 fold increase)	C (C = 2 to <5 fold increase)	B (B = 2 to <5 fold increase)	D (D = equal or >10 fold increase)	D (D = 200 to <500)	B (B = 2 to <5 fold increase)	B (B = 2 to <5 fold increase)	D (D = 200 to <500)	COc1cccc(-c2cc(-c3ncccn3)nn2Cc2ccccc2F)n1 [Compound I-6]	102%
